Data published in patent publication US8722667B2, “Compositions and methods for inhibiting the proliferation of cells” (The Regents of the University of Michigan, priority 1999, dated 2014).

What was measured:
[1] = system: isolated rat liver mitochondria; experiment: ROS production in isolated mitochondria (DCF formation); assay type: biochemical; conditions: for ROS production: mitochondria in state 4; for increase of the rate of ROS production versus control: state 3 respiration, after the induction phase
Procedure: Male Long Evans rats are starved overnight and sacrificed by decapitation. Liver samples are homogenized in ice cold buffer A (250 mM sucrose, 10 mM Tris, 0.1 mM EGTA, pH 7.4), and nuclei and cellular debris are pelleted ([…], 830g, 4° C.). Mitochondria are collected by centrifugation (10 min, 15,000g, 4° C.), and the supernatant is collected as the S15 fraction. The mitochondrial pellet is washed three times with buffer B (250 mM sucrose, 10 mM Tris, pH 7.4), and re-suspended in buffer B at 20-30 mg/mL. Mitochondria are diluted (0.5 mg/mL) in buffer C (200 mM sucrose, 10 mM Tris, pH 7.4, 1 mM KH2PO4, 10 μM EGTA, 2.5 μM rotenone, 5 mM succinate) containing 2′,7′-dichlorodihydrofluorescin diacetate (DCFH-DA, 1 μM). For state 3 measurements, ADP (2 mM) is included in the buffer, and prior to the addition of Bz-423, mitochondria are allowed to charge for 2 min. To induce state 4, oligomycin (10 μM) is added to buffer C. […] To detect effects on O2^− and delta ψm, mitochondria are incubated for 15 min at 37° C. in buffer C with vehicle, Bz-423, or CCCP containing DHE (5 μM) or DIOC6(3) (20 nM), and aliquots are removed for analysis by fluorescence microscopy.
O2^− production by Bz-423 may result from binding to a protein within mitochondria or a target in another compartment that signals mitochondria to generate ROS. To distinguish between these alternatives, isolated rat liver mitochondria were assayed for ROS production by monitoring the oxidation of 2′,7′-dichlorodihydrofluorescin diacetate to of 2′,7′-dichlorofluorescin in the presence and absence of Bz-423. In this assay, the rate of DCF production increased after a lag period during which endogenous reducing equivalents were consumed and the acetate moieties on the probe were hydrolyzed to yield 2′,7′-dichlorodihydrofluorescin, the redox-active species.

Ramos cells = experiment: cytotoxicity versus antiproliferation in media with 10% FBS; assay type: cell-based, human; conditions: >20 μM
Procedure: Like most 1,4-benzodiazepines, Bz-423 binds strongly to bovine serum albumin (BSA), which reduces the effective concentration of drug free in solution. For example, in tissue culture media containing 10% (v/v) fetal bovine serum (FBS), ca. 99% of the drug is bound to BSA. Therefore, cell culture cytotoxicity assays are conducted in media with 2% FBS to reduce binding to BSA and increase the free [Bz-423]. Under these conditions, the dose response-curve is quite sharp such that there is a limited concentration range at which Bz-423 is only partly effective. Since some benzodiazepines are known to have anti-proliferative properties, the effect of Bz-423 at concentrations <ED50 were carefully analyzed and observed that in addition to inducing apoptosis, Bz-423 prevented cell growth after 3 d in culture. In these low serum conditions, the cytotoxic and anti-proliferative effects overlapped making it difficult to study each effect independently. […] While higher amounts of drug may also block proliferation, it caused apoptosis well before the effects on proliferation could be observed.

[2] = system: migration inhibitory factor (MIF); experiment: gene expression profiling of treated cells; assay type: cell-based, human
Source text: In response to antigenic or mitogenic stimulation, lymphocytes secrete protein mediators, one of which is named migration inhibitory factor (MIF) for its ability to prevent the migration of macrophages in vitro. MIF may be an anti-tumor agent. In addition, the ability of MIF to prevent the migration of macrophages may be exploited for treating wounds. MIF may alter the immune response to different antigens. MIF links chemical and immunological detoxification systems. MIF was induced approximately 10-fold by Bz-423. Thus, the present invention contemplates the use of MIF as a target of the compounds of the present invention.
In vitro testing with Ramos cells to determine the changes in gene expression (at the level of mRNA) induced by Bz-423 was performed by culturing cells at a density of 500,000 cells per ml. Solvent control (DMSO, final concentration 0.1% V/V]), Bz-423, or Bz-OMe (10 μM) was added to cells. After 4 h, cells were harvested and RNA prepared using Trizol Reagent (#15596-018, Life Technologies, Rockville, Md.) and the RNeasy Maxi Kit (#75162, Qiagen, Valencia, Calif.) according to manufacturers protocols. Single stranded cDNA was synthesized by reverse transcription using poly (A) RNA present in the starting total RNA sample. […] Hybridization results were quantified using a GeneArray scanner and analysis carried out according to the instructions provided by Affymetrix.

[3] = system: ornithine decarboxylase (ODC); experiment: ODC activity in treated cells, conversion of 3H-ornithine to putrescine; assay type: cell-based; conditions: cells treated 4 h
Procedure: In these experiments, the conversion of ornithine to putrescine was quantified using ^3H-ornithine. For comparisons, control cells were treated with vehicle control or difluoromethyl ornithine (DFMO), a potent inhibitor of ornithine decarboxylase (like Bz-423, DFMO is a potent anti-proliferative agent). […] The reduction in ODC activity was paralleled by a decrease in ODC protein levels measured under the same conditions.
As described above, Bz-423 induced apoptosis was signaled by an ROS response that arose from MRC complex III as a result of the state 3 to 4 transition. It was next sought to determine if the ROS response, critical for apoptosis, also mediated these effects on ODC. If the ROS was required for the decrease in ODC activity, it would likewise be implicated as potentially part of the anti-proliferative response to Bz-423. To test this, Ramos cells were treated with Bz-423, DFMO, or vehicle control for 4 h. In parallel, a second group of cells was pre-incubated with MnTBAP to limit the ROS and then cultured with Bz-423, DFMO, and vehicle control.

Namalwa ρ0 cells = experiment: ROS response in cells devoid of mtDNA; assay type: cell-based
Procedure: ROS in response to Bz-423. Complexes I-IV in the MRC are partially encoded by mitochondrial DNA (mtDNA). […] Because ethidium bromide is toxic to Ramos cells, these experiments were conducted with Namalwa B cells, another mature B cell line.

B cells = experiment: collapse of mitochondrial transmembrane potential, DiOC6(3); assay type: cell-based; conditions: by 5 hours
Procedure: To detect O2^−, cells are incubated with DHE (10 μM) for 30 min at 37° C. and are analyzed by flow cytometry to measure ethidium fluorescence. Flow analysis of mitochondrial transmembrane potential (ψm) is conducted by labeling cells with DiOC6(3) (20 nM) for 15 min at 37 degrees C. A positive control for disruption of ψm is established using carbonyl cyanide m-chlorophenylhydrazone (CCCP, 50 μM). Caspase activation assays are performed with FAM-VAD-fluoromethylketone. Processing of the substrate is evaluated by flow cytometry.
To characterize the death mechanism engaged by Bz-423, intracellular ROS, ΔΨm, cytochrome c release, caspase activation, and DNA fragmentation were measured over time (the results presented are for B cells but do characterize the response in many different cell types). The first event detected after exposure to Bz-423 is an increase in the fraction of cells that stain with dihyroethedium (DHE), a redox-sensitive agent that reacts specifically with O2^−.
Collapse of ΔΨm was detected using DiOC6(3), a mitochondria-selective potentiometric probe.

[4] = system: sub-mitochondrial particles; experiment: redox cycling, NADH and NAD(P)H oxidation assays with sub-mitochondrial particles; assay type: biochemical; conditions: SMPs
Procedure: By contrast, replacing the hydroxyl with chlorine or azide, or methylating the phenol effectively abolishes the cytotoxic activity of Bz-423. […] Such agents accept an electron from MRC enzymes and transfer it back to the chain at point of higher reducing potential. This type of ‘redox cycling’ consumes endogenous reducing equivalents (e.g., glutathione) along with […] nucleotides and results in cell death. To distinguish between these alternatives, it was determined whether Bz-423 redox cycles in the presence of sub-mitochondrial particles using standard NADH and NAD(P)H oxidation assays.

[5] = target: T1, mitochondrial F1F0-ATPase (Bos taurus, UniProt P13621); experiment: ATPase activity in sub-mitochondrial particles (SMPs); assay type: biochemical, bovine; conditions: at 80 μM
T1 construct: from tissue
Source text: Oligomycin, a macrolide natural product that binds to the mitochondrial F1F0-ATPase, induces a state 3 to 4 transition and generates O2^− like Bz-423. Based on these similarities, it is possible that the F1F0-ATPase is also the molecular target for Bz-423. To test this hypothesis, the effect of Bz-423 on ATPase activity in sub-mitochondrial particles (SMPs) was examined.
>40 derivatives of Bz-423 were developed to determine the elements on this novel agent required for biological activity. […] The potency of these analogues in cell based assays correlated with the ED50 values in ATPase inhibition experiments using SMPs.

panel of cells = experiment: antiproliferation of Bz-Cl against the panel of cells, 3 d; assay type: cell-based; conditions: after 3 d

## antimycin A [reference compound]
[1]
  ROS production: active
  increase of the rate of ROS production versus control: nearly two-fold

## CN1C(=O)C(Cc2ccc3ccccc3c2)N=C(c2ccc(O)cc2)c2cc(Cl)ccc21 (stereo not shown) [Bz-423]
Ramos cells
  cellular effect observed: only apoptosis was observed
[1]
  ROS production: does not stimulate ROS
  increase of the rate of ROS production versus control: nearly two-fold
[2]
  induction of MIF: approximately 10 fold
[3]
  effect on ODC activity: significantly reduced ODC activity in a dose-dependant fashion
Namalwa ρ0 cells
  ROS response: did not result in an ROS response
B cells
  cells with collapse of ΔΨm: > 90 % of cells
[4]
  substrate oxidation (redox cycling): does not lead to substrate oxidation

## CCC(C)N(C)C(=O)c1cc2ccccc2c(-c2ccccc2Cl)n1 (stereo not shown) [PK11195]
[5]
  inhibition of mitochondrial ATPase activity: do not significantly inhibit

## CN1C(=O)C(Cc2ccc3ccccc3c2)N=C(c2ccc(Cl)cc2)c2cc(Cl)ccc21 (stereo not shown) [Bz-Cl]
Panel of cells
  ED50 for reduced proliferation compared with Bz-423: comparable ED50 values

## CN1C(=O)CN=C(c2ccc(Cl)cc2)c2cc(Cl)ccc21 [4-Cl-diazepam, 4-chlorodiazepam]
[5]
  inhibition of mitochondrial ATPase activity: do not significantly inhibit
